Assay results taken from ChEMBL document CHEMBL1201862, “PubChem BioAssay data set” (2004).
Active and inactive are the calls of the source.

Tests used:
Cytochrome P450 3A4 [1] = biological target: T1, Cytochrome P450 3A4 (Homo sapiens, UniProt P08684); conditions: read-out: Potency;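 further: confirmatory qHTS run detecting inhibitors and substrates of CYP3A4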
Cytochrome P450 3A4 [2] = biological target: T1, Cytochrome P450 3A4; conditions: Potency
[3] = biological target: Mothers against decapentaplegic homolog 3 (Homo sapiens, UniProt P84022); test: blockers of Smad3 complex formation in lysate – cell lysate, secondary confirmation, chemiluminescent ELISA, HEK293 lysate, dose response (AID 1058); assay type: functional
Vero = test: host cell viability loss, Vero E6 – synthesized analogs, cytotoxicity control for West Nile virus antiviral project, SAR follow-up (AID 2244); assay type: functional; conditions: Chlorocebus sabaeus
[4] = biological target: Photoreceptor-specific nuclear receptor (Homo sapiens, UniProt Q9Y5X4); assay type: functional;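 further: potency for compounds that break the NR2E3 corepressor complex and count as activators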
[5] = biological target: Peroxisome proliferator-activated receptor gamma/Nuclear receptor corepressor 2 (Homo sapiens, UniProt P37231+Q9Y618); assay type: functional
[6] = viability of HCT116 lacking mutant beta-catenin – cell-based, human colon tumor, dose response (AID 1045); assay type: functional;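 further: HCT116 colon tumor cells with beta catenin knocked out; cells exposed to compound for 60 hours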
[7] = CCR5-tropic HIV-1 fusion blockers – cell-based, CCR5-tropic Env, dose response (AID 2279); assay type: functional
[8] = viability of PTEN-deleted HCT116 cells – cell-based, HCT116 PTEN knockout, dose response (AID 1047); assay type: functional;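 further: HCT116 colon tumor cells with PTEN knocked out; cells exposed to compound for 60 hours before readout; potency for loss of cell viability measured by luminescence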
[9] = Luminescence Cell-Based Dose Retest to Confirm Inhibitors of Cancer Stem Cells. [Related pubchem assays (depositor defined):AID2717, AID2721]; assay type: functional; conditions: Homo sapiens
[10] = biological target: T2, Heat shock 70 kDa protein 1A (Homo sapiens, UniProt P0DMV8); test: small molecules displacing fluorescent ligand from Hsp70 – biochemical, fluorescence polarization, primary screen (AID 583)
[11] = biological target: T2, Heat shock 70 kDa protein 1A; test: small-molecule inhibition of Hsp70 – biochemical, TR-FRET (AID 786)
Bcl-2-like protein 10 = biological target: T3, Bcl-2-like protein 10 (Homo sapiens, UniProt Q9HD36); test: Bcl-B/TR3 peptide binding disruption – biochemical, fluorescence polarization, FITC-TR3 peptide, selectivity assay for Bfl-1 inhibitor project, primary screen (AID 748);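 further: fluorescence polarization from a fluorescein-labelled TR3 peptide binding purified Bcl-B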
T3 sequence (Q9HD36 whole entry): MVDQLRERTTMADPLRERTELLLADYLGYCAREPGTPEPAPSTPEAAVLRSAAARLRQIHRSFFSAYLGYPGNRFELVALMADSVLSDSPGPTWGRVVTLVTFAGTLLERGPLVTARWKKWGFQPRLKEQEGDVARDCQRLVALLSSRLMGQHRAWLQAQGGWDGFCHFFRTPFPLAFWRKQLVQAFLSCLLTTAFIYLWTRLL

[12] = biological target: T4, Dual specificity protein phosphatase 6 (Rattus norvegicus, UniProt Q64346); test: inhibition of rat DUSP6 enzyme activity – biochemical, in vitro, primary screen (AID 425)
T4 sequence (Q64346 whole entry): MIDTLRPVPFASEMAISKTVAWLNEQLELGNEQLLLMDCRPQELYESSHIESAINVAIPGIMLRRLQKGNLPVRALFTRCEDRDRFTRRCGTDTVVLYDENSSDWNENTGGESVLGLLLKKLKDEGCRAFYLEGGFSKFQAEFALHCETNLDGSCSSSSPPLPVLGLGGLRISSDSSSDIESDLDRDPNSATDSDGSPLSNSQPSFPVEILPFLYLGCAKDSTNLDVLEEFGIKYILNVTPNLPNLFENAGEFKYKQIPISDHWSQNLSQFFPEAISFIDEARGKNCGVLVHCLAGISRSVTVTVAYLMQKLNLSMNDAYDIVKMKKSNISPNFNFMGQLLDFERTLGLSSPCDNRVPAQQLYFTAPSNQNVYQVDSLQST

[13] = biological target: Melanin-concentrating hormone receptor 1 (Homo sapiens, UniProt Q99705); test: Late-stage fluorescence-based counterscreen for antagonists of the G-protein coupled receptor 7 (GPR7): cell-based dose response assay to identify antagonists of the melanin-concentrating hormone receptor 1 (MCHR1). [Related pubchem assays (depositor defined):AID1861, AID1880, AID1952, AID2148, AID2251, AID2257, AID485339]; assay type: functional;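 further: stimulated with 30 nM MCH peptide agonist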
[14] = biological target: C-C chemokine receptor type 6 (Homo sapiens, UniProt P51684); test: antagonism of CCR6 beta-arrestin recruitment – cell-based, luminescent beta-arrestin readout, dose response (AID 504728); assay type: functional
Beta-galactosidase = Beta-galactosidase (Escherichia coli, UniProt Q8VNN2); test: detection-enzyme interference by beta-gal modulators – biochemical, E. coli enzyme, set 3, artefact control for CCR6 antagonist project, dose response (AID 504712); assay type: functional
[15] = biological target: Voltage-gated N-type calcium channel alpha-1B subunit/Amyloid beta A4 precursor protein-binding family A member 1 (Homo sapiens, UniProt Q00975+Q02410); test: disruptors of Mint-PDZ/N-type channel peptide interaction – biochemical, HTRF, set 2, SAR follow-up (AID 434980); assay type: functional
[16] = alpha-synuclein stem-loop luciferase translation blockers – H4 neuroglioma cells, luminescence, confirmation (AID 1988); assay type: functional, cell-based
Streptococcus = test: GAS UMAA2166 growth inhibition – luminescence, BacTiterGlo, counter-screen for streptokinase expression inhibitor project, dose response (AID 1915); assay type: functional, organism-based;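 further: potency for reduction of bacterial viability or growth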
cells = assay type: functional, cell-based
[17] = biological target: T5, Serine/threonine-protein phosphatase (Candida dubliniensis (strain CD36 / CBS 7987 / NCPF 3949 / NRRLY-17841) (Yeast), UniProt B9W6M3); test: blockers of CaCl2-induced CDRE-lacZ signaling – S. cerevisiae, luminescence, secondary, dose response (AID 2388); assay type: functional, cell-based;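 further: yeast reporter cells carrying a calcineurin-responsive lacZ construct stimulated with calcium chloride; luminescent beta-galactosidase reporter signal in whole cells rather than isolated phosphatase activity; potency for inhibition where a drop in reporter signal means calcineurin blockade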
T5 sequence (B9W6M3 whole entry): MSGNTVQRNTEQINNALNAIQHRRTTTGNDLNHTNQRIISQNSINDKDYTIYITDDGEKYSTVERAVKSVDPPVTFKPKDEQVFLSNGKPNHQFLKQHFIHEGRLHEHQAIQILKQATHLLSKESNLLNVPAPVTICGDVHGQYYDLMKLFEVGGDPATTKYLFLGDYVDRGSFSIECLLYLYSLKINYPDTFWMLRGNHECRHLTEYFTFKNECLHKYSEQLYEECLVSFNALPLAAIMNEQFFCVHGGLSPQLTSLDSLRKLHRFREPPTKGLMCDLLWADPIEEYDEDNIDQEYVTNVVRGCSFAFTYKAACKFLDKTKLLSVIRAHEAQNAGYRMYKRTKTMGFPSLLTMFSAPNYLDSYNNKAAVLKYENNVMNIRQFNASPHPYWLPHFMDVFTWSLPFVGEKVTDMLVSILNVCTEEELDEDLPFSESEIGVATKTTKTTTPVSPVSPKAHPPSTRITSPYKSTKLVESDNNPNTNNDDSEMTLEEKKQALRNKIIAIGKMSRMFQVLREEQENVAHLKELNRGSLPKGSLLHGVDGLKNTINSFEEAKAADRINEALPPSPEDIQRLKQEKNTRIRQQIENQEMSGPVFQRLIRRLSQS

HEK293 [18] = test: cells; assay type: functional, cell-based; conditions: Homo sapiens
[19] = biological target: Nucleotide-binding oligomerization domain-containing protein 2 (Homo sapiens, UniProt Q9HC29); test: inhibition of NOD2-driven NF-kB reporter – cell-based, luminescence, uHTS, HEK293 (AID 1566); assay type: functional
[20] = NIH3T3 cell viability loss – ATP luminescence, mouse fibroblasts, counter-screen, dose response (AID 2010); assay type: functional, cell-based;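 further: cells exposed to compound for about 90 hours before reading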
[21] = NIH-3T3 fibroblast cytotoxicity, dose response, cytotoxicity control, cell-based, fluorescence, Alamar Blue, secondary assay (AID 2327); assay type: functional;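 further: NIH-3T3 mouse fibroblasts cultured with fluconazole at 8 µg/mL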
[22] = biological target: ATP-dependent molecular chaperone HSP82 (Candida albicans (strain WO-1) (Yeast), UniProt C4YTQ8); test: steroid-induced GRE reporter decrease in yeast – S. cerevisiae, luminescence, Hsp90 inhibitor project, dose response (AID 2400); assay type: functional, cell-based;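 further: beta-galactosidase luminescence from glucocorticoid response element reporter as proxy for Hsp90 function; inhibitor potency where signal loss means Hsp90 inhibition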
[23] = luciferase reporter signal reduction – luminescence, H4-C neuroglioblastoma cells, dose response (AID 2458); assay type: functional, cell-based;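 further: H4 neuroglioblastoma cells stably carrying a luciferase reporter gene fusion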
HEK293 [24] = test: cells; assay type: functional, cell-based; conditions: Homo sapiens; remark: listed apart in the source
[25] = test system: Streptococcus sp. 'group A'; test: Streptococcus pyogenes SK(-)GAS viability under kanamycin – luminescence, BacTiterGlo, confirmation, counter-screen for streptokinase expression inhibitor project, dose response (AID 1900); assay type: functional, organism-based
HEK293 [26] = test: cells; assay type: functional, cell-based; conditions: Homo sapiens; remark: listed apart in the source
[27] = fluconazole-exposed Candida albicans growth modulators – fluorescence, retest, confirmation (AID 2467); assay type: functional, cell-based
HEK293 [28] = test: NOD2 signaling inhibitors in MDP-stimulated cells, cell-based, uHTS, luminescence (AID 2001); assay type: functional; conditions: Homo sapiens
INS1 = test: INS-1E survival protection against cytokine death – cell-based, luminescence, retest, dose response (AID 449756); assay type: functional; conditions: Rattus norvegicus;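 further: cell death triggered by IL-1 beta plus TNF-alpha plus IFN-gamma mixture; protective hits raise ATP signal compared with cytokine alone wells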
[29] = alpha-synuclein stem-loop translation blockers – luminescence, H4 neuroglioblastoma cells, dose confirmation, confirmation (AID 2454); assay type: functional, cell-based;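 further: H4 neuroglioblastoma cells carrying an alpha-synuclein 5'UTR luciferase reporter; potency for inhibition of the luciferase signal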
[30] = Luminescence Cell-Based Dose Response HTS to Identify Inhibitors of 5'UTR Stem-Loop Driven Prion Protein mRNA Translation in H4 Neuroglioblastoma Cells. [Related pubchem assays: 1827 (Project Summary), 1813 (Primary HTS)]; assay type: functional
HEK293 [31] = test: inhibition of NOD1-driven NF-kB reporter – cell-based, luminescence, uHTS, primary screen (AID 1578); assay type: functional; conditions: Homo sapiens
[32] = Trypanosoma cruzi growth suppression in host cells – NIH3T3 host cells, beta-gal luminescence, confirmation (AID 2044); assay type: functional, cell-based;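 further: intracellular parasites grown in NIH/3T3 mouse fibroblasts as host cells; luminescent beta-galactosidase reporter signal from transgenic T. cruzi replicating inside host cells; inhibitors lower the luminescence signal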
[33] = biological target: Serine/threonine-protein phosphatase PP1-alpha catalytic subunit (Homo sapiens, UniProt P62136); test: inhibition of protein phosphatase 1 activity – biochemical, fluorescence, dose response (AID 2403);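 further: phosphatase turnover of OMFP into fluorescent 3-O-methylfluorescein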
[34] = biological target: Serine/threonine-protein phosphatase (Homo sapiens, UniProt Q9BPW0); test: Counterscreen for inhibitors of PP1: fluorescence-based biochemical high throughput dose response assay to identify inhibitors of Protein Phosphatase 5 (PP5). [Related pubchem assays: 2034 (Summary (PP5 inhibitors)), 1987 (PP5 inhibitors in singlate), 2235 (PP1 inhibitors in singlate)]
Sequence of Serine/threonine-protein phosphatase (Homo sapiens, UniProt Q9BPW0) (Q9BPW0 whole entry): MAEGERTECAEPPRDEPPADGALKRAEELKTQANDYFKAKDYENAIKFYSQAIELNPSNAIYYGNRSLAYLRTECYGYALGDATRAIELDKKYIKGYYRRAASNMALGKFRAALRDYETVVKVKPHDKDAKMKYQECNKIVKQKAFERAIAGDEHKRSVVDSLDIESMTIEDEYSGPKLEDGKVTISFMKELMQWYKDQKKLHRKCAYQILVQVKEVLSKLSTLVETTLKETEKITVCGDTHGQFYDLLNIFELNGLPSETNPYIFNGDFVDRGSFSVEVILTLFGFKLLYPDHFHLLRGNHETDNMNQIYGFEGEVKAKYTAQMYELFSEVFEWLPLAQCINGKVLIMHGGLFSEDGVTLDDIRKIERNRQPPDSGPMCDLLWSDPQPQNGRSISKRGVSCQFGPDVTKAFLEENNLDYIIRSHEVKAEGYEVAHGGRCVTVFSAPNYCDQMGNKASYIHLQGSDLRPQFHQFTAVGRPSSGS

T2 sequence (P0DMV8 whole entry): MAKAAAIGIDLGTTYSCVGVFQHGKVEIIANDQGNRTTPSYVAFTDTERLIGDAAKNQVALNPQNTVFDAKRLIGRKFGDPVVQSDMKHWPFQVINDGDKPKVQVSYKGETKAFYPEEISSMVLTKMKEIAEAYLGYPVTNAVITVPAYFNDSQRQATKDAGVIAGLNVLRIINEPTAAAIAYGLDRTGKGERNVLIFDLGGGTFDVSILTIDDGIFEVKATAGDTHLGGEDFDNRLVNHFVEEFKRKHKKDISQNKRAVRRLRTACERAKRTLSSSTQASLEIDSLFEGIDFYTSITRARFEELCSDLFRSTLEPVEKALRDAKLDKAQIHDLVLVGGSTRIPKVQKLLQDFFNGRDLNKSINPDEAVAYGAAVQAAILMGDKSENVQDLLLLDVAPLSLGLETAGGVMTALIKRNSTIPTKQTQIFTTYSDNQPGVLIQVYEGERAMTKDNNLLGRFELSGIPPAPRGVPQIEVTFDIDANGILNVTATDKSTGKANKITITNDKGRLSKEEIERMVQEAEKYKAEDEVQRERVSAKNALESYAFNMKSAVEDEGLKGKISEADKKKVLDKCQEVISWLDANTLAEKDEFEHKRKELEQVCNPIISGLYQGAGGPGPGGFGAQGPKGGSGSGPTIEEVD
T1 sequence (P08684 whole entry): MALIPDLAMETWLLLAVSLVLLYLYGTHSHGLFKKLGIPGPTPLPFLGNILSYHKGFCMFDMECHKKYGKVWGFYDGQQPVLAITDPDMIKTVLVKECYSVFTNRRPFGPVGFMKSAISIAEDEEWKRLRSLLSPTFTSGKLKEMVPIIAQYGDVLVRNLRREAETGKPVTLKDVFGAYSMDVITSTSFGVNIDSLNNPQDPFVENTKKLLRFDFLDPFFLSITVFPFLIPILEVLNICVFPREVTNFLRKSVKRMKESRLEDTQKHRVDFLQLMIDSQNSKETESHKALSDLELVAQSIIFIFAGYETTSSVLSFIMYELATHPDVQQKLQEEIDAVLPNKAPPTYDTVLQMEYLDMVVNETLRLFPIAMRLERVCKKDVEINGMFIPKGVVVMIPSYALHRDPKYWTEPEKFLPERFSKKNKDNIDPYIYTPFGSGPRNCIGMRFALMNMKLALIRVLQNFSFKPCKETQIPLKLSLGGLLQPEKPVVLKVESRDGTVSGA
Sequence of Beta-galactosidase (Q8VNN2 whole entry): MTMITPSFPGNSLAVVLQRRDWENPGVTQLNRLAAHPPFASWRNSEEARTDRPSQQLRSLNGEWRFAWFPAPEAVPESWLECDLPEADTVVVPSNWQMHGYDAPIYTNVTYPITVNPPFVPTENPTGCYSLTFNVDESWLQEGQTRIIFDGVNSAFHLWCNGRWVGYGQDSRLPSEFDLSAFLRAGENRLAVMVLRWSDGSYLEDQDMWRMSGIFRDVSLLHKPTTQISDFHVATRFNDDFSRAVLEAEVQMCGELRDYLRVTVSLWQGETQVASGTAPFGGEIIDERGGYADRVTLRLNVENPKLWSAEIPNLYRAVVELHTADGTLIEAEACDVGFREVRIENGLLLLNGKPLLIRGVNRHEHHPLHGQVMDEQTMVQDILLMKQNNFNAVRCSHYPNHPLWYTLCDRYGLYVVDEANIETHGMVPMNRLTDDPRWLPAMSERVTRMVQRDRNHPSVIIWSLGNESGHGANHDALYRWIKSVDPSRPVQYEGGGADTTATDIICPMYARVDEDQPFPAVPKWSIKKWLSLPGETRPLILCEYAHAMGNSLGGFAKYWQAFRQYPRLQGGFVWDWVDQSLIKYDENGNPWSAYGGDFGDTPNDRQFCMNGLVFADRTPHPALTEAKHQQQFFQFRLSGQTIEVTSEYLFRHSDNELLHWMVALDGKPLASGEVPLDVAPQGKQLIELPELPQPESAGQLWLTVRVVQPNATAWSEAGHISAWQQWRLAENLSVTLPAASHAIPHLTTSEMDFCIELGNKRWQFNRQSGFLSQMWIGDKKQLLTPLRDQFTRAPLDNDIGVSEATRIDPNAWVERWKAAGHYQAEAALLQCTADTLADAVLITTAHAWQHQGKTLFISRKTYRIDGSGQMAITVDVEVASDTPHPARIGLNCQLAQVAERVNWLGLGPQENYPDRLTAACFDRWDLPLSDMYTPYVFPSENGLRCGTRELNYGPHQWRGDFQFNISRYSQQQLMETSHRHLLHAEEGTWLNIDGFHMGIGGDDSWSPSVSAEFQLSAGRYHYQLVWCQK
Sequence of Melanin-concentrating hormone receptor 1 (Q99705 whole entry): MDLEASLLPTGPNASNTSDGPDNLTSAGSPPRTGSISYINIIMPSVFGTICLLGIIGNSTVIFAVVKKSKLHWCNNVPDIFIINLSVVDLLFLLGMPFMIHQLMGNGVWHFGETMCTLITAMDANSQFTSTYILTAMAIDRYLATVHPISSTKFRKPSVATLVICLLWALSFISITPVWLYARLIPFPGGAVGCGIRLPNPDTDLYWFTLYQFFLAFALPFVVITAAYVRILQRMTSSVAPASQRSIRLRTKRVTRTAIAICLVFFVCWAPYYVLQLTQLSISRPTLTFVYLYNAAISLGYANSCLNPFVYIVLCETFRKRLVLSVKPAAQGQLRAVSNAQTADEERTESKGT
Sequence of Nucleotide-binding oligomerization domain-containing protein 2 (Q9HC29 whole entry, the tested form may be a part): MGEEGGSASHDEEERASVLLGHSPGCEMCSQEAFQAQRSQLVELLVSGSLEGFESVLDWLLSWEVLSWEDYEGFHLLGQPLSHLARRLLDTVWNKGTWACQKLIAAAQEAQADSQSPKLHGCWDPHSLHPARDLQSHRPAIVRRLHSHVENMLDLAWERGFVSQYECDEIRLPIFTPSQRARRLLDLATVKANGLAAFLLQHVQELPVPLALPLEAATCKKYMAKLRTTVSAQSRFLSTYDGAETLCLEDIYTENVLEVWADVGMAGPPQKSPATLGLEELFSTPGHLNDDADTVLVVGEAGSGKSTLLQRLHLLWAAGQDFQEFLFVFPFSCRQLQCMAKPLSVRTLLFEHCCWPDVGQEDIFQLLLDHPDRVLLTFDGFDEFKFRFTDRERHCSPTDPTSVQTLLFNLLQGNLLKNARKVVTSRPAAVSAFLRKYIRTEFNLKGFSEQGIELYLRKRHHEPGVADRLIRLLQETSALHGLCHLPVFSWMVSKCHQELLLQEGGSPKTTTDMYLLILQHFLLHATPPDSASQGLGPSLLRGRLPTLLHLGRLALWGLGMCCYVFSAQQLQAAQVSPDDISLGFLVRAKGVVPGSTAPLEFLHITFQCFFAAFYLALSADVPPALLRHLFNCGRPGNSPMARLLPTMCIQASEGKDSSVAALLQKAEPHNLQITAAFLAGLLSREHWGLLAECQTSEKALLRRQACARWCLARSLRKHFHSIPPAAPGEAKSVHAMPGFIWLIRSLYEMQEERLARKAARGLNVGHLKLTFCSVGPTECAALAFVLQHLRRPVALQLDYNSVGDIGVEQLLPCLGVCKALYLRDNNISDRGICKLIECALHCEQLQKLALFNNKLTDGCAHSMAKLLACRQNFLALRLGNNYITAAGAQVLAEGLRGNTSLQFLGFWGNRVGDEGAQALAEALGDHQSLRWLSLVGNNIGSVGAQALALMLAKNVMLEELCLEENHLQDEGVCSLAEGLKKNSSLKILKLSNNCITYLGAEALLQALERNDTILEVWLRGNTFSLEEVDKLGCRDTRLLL
Sequence of Photoreceptor-specific nuclear receptor (Q9Y5X4 whole entry): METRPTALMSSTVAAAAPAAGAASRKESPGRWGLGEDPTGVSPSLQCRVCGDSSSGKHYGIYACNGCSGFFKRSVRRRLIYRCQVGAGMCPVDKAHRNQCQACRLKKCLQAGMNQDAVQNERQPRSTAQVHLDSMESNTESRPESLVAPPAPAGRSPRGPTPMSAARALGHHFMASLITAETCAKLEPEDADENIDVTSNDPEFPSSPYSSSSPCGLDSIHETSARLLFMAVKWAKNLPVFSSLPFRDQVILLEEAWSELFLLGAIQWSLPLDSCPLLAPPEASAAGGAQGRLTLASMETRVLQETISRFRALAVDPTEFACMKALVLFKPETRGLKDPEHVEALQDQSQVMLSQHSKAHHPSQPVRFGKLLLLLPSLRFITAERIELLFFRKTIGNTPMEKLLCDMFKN
Sequence of Serine/threonine-protein phosphatase PP1-alpha catalytic subunit (P62136 whole entry): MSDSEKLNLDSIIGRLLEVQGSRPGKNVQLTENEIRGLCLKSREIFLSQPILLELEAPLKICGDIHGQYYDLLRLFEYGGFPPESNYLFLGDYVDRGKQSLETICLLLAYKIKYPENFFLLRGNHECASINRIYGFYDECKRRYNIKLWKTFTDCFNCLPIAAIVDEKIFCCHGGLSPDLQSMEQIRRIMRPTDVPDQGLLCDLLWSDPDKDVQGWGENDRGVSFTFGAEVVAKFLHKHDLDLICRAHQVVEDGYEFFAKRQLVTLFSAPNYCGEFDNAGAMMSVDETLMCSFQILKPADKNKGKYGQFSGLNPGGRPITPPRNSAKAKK

COC(=O)C1=C(C)N(Cc2ccccc2)C2=C(C(C)=O)C[C@@](O)(C(=O)OC)C(=O)N2C1c1ccccc1 (some centres undefined)
AC50 (Cytochrome P450 3A4 [1]): 3.16 µM (inconclusive)
AC50 (Cytochrome P450 3A4 [2]): 3.16 µM (inconclusive)

COc1ccc(C(c2cc3c(cc2O)OCO3)N2CCCCC2)cc1 (centres undefined)
IC50 [3]: < 2.5 µM (not active)

O=C(Nc1nc(-c2ccc(Cl)cc2)cs1)c1ccccc1F
CC50 (Vero): > 40 µM (active)

COc1ccc(-n2c(=S)[nH]c3c(oc4ccccc43)c2=O)cc1
IC50 [4]: 2.32 µM (active)
IC50 [5]: 4.93 µM (active)

O=C(O)CCn1cc(/C=C/C(=O)c2ccc(Cl)cc2)c(-c2ccc(Br)cc2)n1
EC50 [6]: 15.5 µM (active)
IC50 [7]: 22.7 µM (active)
EC50 [8]: 15.9 µM (active)
AC50 [9]: 5.62 µM (active)

Cc1ccc(C)n1-c1cccc(C(=O)O)c1
IC50 [10]: 48.3 µM (active)
IC50 [11]: 18.5 µM (active)
IC50 (Bcl-2-like protein 10): 1.13 µM (active)
IC50 [12]: > 10 µM (not active)

COc1ccc(Oc2c(Cl)cnn(-c3cccc4ccccc34)c2=O)cc1
IC50 [13]: 8.4 µM (active)

C(=C\c1sc(Nc2ccccc2)n[n+]1-c1ccccc1)/c1ccccc1
IC50 [14]: 48.8 µM (inactive)
IC50 (Beta-galactosidase): > 66.6 µM (inactive)

O=C(NCCc1ccc(Cl)cc1)c1cc(-c2ccco2)nc2ccccc12
IC50 [15]: 31.1 µM (active)

Oc1c(Br)cc(Br)cc1/C=N/Nc1ccc(Cl)nn1
EC50 [16]: < 0.1 µM (active)
EC50 (Streptococcus): 0.899 µM (active)
EC50 (cells): 0.502 µM (active)
EC50 [17]: > 180 µM (inactive)
IC50 (HEK293 [18]): > 20 µM (inactive)
EC50 [19]: > 20 µM (inactive)
EC50 [20]: > 30 µM (not active)
EC50 [21]: 45.2 µM (active)
EC50 [22]: 24.3 µM (active)
EC50 [23]: 0.931 µM (active)
IC50 (HEK293 [24]): > 20 µM (inactive)
EC50 [25]: 0.249 µM (active)
IC50 (HEK293 [26]): > 20 µM (inactive)
EC50 [27]: < 0.03 µM (active)
IC50 (HEK293 [28]): > 20 µM (inactive)
AC50 (INS1): 0.22 µM (active)
EC50 [29]: > 12 µM (inconclusive)
EC50 [30]: 0.287 µM (active)
EC50 (HEK293 [31]): > 20 µM (inactive)
EC50 [32]: 0.495 µM (active)

CCOC(=O)c1sc(N2C(=O)C(O)=C(C(=O)c3ccco3)C2c2cccc([N+](=O)[O-])c2)nc1C (centres undefined)
IC50 (HEK293 [18]): > 20 µM (inactive)
IC50 [33]: 11.8 µM (not active)
IC50 [34]: > 67 µM (not active)
IC50 (HEK293 [26]): > 20 µM (inactive)
IC50 (HEK293 [28]): > 20 µM (inactive)
EC50 (HEK293 [31]): > 20 µM (inactive)
